Calls of active or inactive are those of the source.
Legend:
[1] = molecular target: T1, Leucine aminopeptidase (Plasmodium falciparum 3D7, UniProt Q8IL11); assay: P. falciparum M17LAP inhibitors, primary screen, biochemical, fluorogenic H-Leu-NHMec substrate, 1536-well (AID 1619); format: functional
T1 sequence (Q8IL11 whole entry): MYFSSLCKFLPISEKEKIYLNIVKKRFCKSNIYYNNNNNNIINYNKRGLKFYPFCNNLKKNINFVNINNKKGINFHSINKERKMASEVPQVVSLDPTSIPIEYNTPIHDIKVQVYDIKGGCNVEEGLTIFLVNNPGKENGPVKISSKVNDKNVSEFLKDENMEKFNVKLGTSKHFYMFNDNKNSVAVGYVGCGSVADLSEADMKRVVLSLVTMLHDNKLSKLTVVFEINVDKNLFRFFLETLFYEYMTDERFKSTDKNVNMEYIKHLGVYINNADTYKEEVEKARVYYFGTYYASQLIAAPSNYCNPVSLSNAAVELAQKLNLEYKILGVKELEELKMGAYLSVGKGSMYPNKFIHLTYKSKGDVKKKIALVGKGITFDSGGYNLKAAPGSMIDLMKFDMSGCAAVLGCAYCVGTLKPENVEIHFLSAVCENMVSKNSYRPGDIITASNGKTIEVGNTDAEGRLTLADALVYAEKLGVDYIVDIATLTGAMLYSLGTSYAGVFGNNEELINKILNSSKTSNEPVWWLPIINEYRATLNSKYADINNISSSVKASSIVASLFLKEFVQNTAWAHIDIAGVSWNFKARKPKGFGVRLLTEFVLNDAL

[2] = molecular target: T2, Heat shock 70 kDa protein 1A (Homo sapiens, UniProt P0DMV8); assay: small-molecule inhibition of Hsp70 – biochemical, TR-FRET (AID 786)
[3] = molecular target: T3, Dual specificity protein phosphatase 3 (Homo sapiens, UniProt P51452); assay: VHR1 phosphatase inhibitors, primary screen, biochemical, absorbance, uHTS (AID 1654)
[4] = molecular target: T2, Heat shock 70 kDa protein 1A; assay: small molecules displacing fluorescent ligand from Hsp70 – biochemical, fluorescence polarization, primary screen (AID 583)
[5] = molecular target: Guanyl-specific ribonuclease T1 (Aspergillus oryzae (strain ATCC 42149 / RIB 40), UniProt P00651); assay: inhibition of ribonuclease T1 activity – biochemical, fluorescence polarization, 1536-well, counter-screen for TPT1 inhibitor project, dose response (AID 2167)
[6] = molecular target: Mothers against decapentaplegic homolog 3 (Homo sapiens, UniProt P84022); assay: inhibitors of SMAD-driven TGF-beta signaling – dose response (AID 715); format: functional
[7] = molecular target: Likely tRNA 2'-phosphotransferase (Candida albicans (strain SC5314 / ATCC MYA-2876) (Yeast), UniProt Q5A7N4); assay: inhibition of Candida TPT1 enzyme activity – biochemical, fluorescence polarization, dose response (AID 2160)
[8] = molecular target: T2, Heat shock 70 kDa protein 1A; assay: inhibition of Hsp70 binding activity – biochemical, fluorescence polarization, SAR follow-up (AID 1072)
[9] = molecular target: T3, Dual specificity protein phosphatase 3; assay: VHR1 phosphatase inhibitors, biochemical (AID 1878)
[10] = molecular target: T4, Dual specificity protein phosphatase 6 (Rattus norvegicus, UniProt Q64346); assay: inhibition of rat DUSP6 enzyme activity – biochemical, in vitro, primary screen (AID 425)
T4 sequence (Q64346 whole entry): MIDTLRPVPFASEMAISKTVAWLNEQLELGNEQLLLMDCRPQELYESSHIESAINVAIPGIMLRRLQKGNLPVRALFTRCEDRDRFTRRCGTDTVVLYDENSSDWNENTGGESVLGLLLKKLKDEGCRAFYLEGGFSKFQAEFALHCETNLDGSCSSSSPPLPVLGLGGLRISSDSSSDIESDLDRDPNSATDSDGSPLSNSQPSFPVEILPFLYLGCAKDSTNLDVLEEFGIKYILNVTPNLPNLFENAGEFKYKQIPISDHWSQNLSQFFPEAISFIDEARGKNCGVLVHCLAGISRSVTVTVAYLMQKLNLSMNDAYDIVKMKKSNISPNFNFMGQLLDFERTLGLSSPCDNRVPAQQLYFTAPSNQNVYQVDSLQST

[11] = molecular target: Induced myeloid leukemia cell differentiation protein Mcl-1 (Homo sapiens, UniProt Q07820); format: functional
[12] = molecular target: Eukaryotic translation initiation factor 4E (Mus musculus, UniProt P63073); assay: blockers of eIF4G binding by eIF4E – biochemical, TR-FRET, dose response (AID 855); format: functional;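 further: potency for disrupting eIF4E binding to eIF4GI seen as loss of FRET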
[13] = molecular target: Cytochrome P450 2C9 (Homo sapiens, UniProt P11712); conditions: Potency
[14] = molecular target: G-protein coupled receptor 35 (Homo sapiens, UniProt Q9HC97); assay: SAR Analysis for the identification of Selective Antagonists of ERK1/2 Activity in GPR35-Overexpressing U2OS Cells. [Related pubchem assays: 2079, 2058 ]; format: functional, cell-based
[15] = molecular target: G-protein coupled receptor 55 (Homo sapiens, UniProt Q9Y2T6); assay: blockers of GPR55 signalling, imaged – imaging, image-based, counter-screen for GPR35 antagonist project, SAR follow-up (AID 2397); format: functional
[16] = HEK-293T cell viability reduction – luminescence, B-cell screen hits, cytotoxicity control for BCR NF-kB inhibitor project, dose response (AID 489021); format: functional, cell-based;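 further: HEK-293T cells carrying an NF-kB luciferase reporter; cells exposed to compound for about 14 hours before viability readout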
[17] = Luminescence Cell-Based Dose Retest to Confirm Inhibitors of Cancer Stem Cells. [Related pubchem assays (depositor defined):AID2717, AID2721]; format: functional; conditions: Homo sapiens
[18] = viability loss of HMLE_sh_eGFP cells – cell-based, luminescence, counter-screen for HMLE_sh_ECad selective toxicity project, dose response (AID 463074); format: functional, Homo sapiens;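 further: HMLE human mammary epithelial cells expressing control shRNA against eGFP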
[19] = test system: Escherichia coli; assay: microbe, parasite or virus in culture
[20] = restored growth of temperature-sensitive Burl-1 yeast – whole organism, S. cerevisiae, Burl-1 ts mutant, luminescence, counter-screen for SUMOylation pathway inhibitor project, dose response (AID 463199); format: functional

T2 sequence (P0DMV8 whole entry): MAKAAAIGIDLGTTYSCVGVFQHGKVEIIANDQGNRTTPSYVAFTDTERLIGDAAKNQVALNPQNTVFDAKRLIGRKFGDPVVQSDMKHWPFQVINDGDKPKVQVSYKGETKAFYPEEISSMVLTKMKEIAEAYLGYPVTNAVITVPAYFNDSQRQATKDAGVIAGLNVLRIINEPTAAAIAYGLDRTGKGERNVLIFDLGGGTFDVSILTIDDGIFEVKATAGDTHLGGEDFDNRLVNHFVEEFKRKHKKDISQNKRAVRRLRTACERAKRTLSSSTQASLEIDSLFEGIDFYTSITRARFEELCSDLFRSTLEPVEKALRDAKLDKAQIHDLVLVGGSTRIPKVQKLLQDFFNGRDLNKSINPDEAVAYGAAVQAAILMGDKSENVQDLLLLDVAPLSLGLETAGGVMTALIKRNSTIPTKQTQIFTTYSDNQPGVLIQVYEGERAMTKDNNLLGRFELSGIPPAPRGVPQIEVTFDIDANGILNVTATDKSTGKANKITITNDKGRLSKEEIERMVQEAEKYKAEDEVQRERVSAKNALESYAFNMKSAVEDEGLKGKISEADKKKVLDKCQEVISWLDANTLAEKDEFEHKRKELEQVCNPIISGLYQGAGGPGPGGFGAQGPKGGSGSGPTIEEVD
T3 sequence (P51452 whole entry): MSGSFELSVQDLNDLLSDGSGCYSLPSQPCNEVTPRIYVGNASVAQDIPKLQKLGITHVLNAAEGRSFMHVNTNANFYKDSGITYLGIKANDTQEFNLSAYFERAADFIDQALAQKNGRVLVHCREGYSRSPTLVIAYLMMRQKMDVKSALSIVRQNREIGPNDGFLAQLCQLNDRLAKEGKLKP
Chain of G-protein coupled receptor 35 (Q9HC97 whole entry): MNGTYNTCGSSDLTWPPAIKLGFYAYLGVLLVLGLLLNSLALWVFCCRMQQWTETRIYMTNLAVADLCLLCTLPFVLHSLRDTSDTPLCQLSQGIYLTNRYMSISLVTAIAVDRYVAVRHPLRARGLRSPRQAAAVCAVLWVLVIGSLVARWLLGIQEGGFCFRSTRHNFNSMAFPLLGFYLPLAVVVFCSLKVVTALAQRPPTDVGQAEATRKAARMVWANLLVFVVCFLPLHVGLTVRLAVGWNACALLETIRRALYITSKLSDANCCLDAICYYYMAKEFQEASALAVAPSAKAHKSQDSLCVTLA
Chain of G-protein coupled receptor 55 (Q9Y2T6 whole entry): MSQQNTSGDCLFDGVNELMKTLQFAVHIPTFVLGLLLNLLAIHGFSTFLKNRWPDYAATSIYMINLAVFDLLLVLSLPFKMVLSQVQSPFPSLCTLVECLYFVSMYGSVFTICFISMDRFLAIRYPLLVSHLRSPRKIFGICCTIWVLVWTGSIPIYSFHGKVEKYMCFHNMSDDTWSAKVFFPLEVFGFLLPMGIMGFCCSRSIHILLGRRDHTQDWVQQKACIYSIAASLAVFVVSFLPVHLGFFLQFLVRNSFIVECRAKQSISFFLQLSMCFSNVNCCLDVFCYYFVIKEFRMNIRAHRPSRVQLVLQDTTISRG
Chain of Eukaryotic translation initiation factor 4E (P63073 whole entry): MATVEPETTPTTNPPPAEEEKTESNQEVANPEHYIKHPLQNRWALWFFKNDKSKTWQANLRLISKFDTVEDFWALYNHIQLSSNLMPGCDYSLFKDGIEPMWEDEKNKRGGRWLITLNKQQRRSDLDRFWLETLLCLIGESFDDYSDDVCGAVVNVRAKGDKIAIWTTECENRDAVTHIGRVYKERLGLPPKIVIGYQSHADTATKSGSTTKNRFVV
Chain of Cytochrome P450 2C9 (P11712 whole entry): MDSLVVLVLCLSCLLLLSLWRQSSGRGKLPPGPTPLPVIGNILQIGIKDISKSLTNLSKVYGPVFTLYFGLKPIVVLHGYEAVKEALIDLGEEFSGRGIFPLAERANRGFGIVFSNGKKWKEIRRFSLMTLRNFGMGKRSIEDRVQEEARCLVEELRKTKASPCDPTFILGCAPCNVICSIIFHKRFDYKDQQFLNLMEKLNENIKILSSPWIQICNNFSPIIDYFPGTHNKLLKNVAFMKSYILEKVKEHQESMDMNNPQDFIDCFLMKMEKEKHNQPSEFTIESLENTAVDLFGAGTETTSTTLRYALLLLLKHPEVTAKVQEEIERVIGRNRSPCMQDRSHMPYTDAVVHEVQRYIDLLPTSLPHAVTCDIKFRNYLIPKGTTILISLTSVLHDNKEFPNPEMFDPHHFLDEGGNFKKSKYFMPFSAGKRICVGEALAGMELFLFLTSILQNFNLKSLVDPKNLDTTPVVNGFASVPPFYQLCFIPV
Chain of Induced myeloid leukemia cell differentiation protein Mcl-1 (Q07820 whole entry): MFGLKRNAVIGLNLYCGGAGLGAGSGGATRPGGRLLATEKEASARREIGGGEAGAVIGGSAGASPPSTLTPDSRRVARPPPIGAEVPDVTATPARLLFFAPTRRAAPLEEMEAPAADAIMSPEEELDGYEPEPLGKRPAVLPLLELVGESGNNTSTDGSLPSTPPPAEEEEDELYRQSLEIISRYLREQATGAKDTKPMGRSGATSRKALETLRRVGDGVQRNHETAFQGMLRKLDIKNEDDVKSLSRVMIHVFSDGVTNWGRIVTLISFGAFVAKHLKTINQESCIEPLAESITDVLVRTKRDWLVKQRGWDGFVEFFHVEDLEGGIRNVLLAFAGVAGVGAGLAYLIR
Chain of Likely tRNA 2'-phosphotransferase (Q5A7N4 whole entry): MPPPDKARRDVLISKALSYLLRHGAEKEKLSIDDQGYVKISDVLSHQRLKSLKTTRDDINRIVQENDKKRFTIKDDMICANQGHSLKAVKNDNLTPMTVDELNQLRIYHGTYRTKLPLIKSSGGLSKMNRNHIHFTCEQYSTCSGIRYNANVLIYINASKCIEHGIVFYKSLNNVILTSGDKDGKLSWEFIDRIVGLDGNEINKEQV
Chain of Guanyl-specific ribonuclease T1 (P00651 whole entry): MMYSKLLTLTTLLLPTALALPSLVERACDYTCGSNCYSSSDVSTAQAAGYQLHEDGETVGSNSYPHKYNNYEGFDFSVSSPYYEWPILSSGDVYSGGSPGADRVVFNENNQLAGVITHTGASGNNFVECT
Chain of Mothers against decapentaplegic homolog 3 (P84022 whole entry): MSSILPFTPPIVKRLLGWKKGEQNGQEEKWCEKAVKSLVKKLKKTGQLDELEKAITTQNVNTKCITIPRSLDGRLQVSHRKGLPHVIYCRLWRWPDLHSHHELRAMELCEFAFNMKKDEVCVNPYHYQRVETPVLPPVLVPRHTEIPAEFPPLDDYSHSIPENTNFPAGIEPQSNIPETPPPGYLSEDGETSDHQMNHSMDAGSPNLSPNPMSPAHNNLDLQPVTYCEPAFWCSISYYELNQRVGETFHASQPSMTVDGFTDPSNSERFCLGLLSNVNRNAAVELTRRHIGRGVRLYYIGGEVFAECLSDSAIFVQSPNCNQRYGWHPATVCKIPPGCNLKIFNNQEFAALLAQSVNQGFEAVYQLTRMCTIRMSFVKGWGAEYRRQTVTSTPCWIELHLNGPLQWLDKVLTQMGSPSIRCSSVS

O=c1oc2c(O)c(O)cc3c(=O)oc4c(O)c(O)cc1c4c23 [ELLAGIC ACID]
IC50 [1]: 138 µM (active)
IC50 [2]: > 100 µM (not active)
IC50 [3]: < 0.98 µM (inactive)
IC50 [4]: 0.76 µM (active)
IC50 [5]: > 55.7 µM (not active)
IC50 [6]: 0.142 µM (active)
IC50 [7]: 0.541 µM (active)
IC50 [8]: > 100 µM (not active)
IC50 [9]: < 1.23 µM (inactive)
IC50 [10]: 39.5 µM (active)
IC50 [11]: > 54 µM (active)
IC50 [12]: 47.7 µM (inactive)
AC50 [13]: 39.8 µM (inconclusive)

COc1ccc(/C=C2/SC(=S)N(CCCC(=O)Nc3ccc(O)cc3)C2=O)cc1
IC50 [14]: > 32 µM (not active)
IC50 [15]: > 32 µM (inactive)
IC50 [16]: > 80 µM (inactive)

COc1ccc(C(=O)NNc2ccccc2)cc1
AC50 [17]: 9.98 µM (active)
AC50 [18]: 21.4 µM (active)

COC(C(=O)Nc1ccnn1C1CCN(C(=O)c2ccc(C=O)cc2)CC1)c1ccccc1 (stereo not given)
AC50 [19]: 26.2 µM (active)

O=C(CNC(=O)c1ccco1)OCC(=O)c1cccc2ccccc12
AC50 [20]: 54.6 µM (active)
